{"source": "patent US20190136321A1", "about": "“USE OF TRANSLATIONAL PROFILING TO IDENTIFY TARGET MOLECULES FOR THERAPEUTIC TREATMENT” (The Regents of The University of California, priority 2013, published 2019)", "key": {"[1]": {"tested_on": "YB1, MTA1, vimentin, and CD44", "assay": "Western blot and qPCR of mTOR-sensitive invasion genes in PC3 cells", "assay_type": "cell-based, human", "settings": "starting at 6 hr of treatment"}, "PC3 cells": {"tested_on": "PC3 cells", "assay": "Matrigel invasion assay", "assay_type": "cell-based, human", "settings": "6-hr pre-treatment followed by 6 hr of cell invasion", "source_text": "BioCoat Matrigel Invasion Chambers (modified Boyden Chamber Assay; BD Biosciences) were used according to the manufacturer's instructions."}, "GFP-labeled PC3 cells": {"tested_on": "GFP-labeled PC3 cells", "assay": "Real-time imaging of cell migration", "assay_type": "cell-based, human", "settings": "starting at 6 hr of treatment", "description": "Real-time imaging of GFP-labeled PC3 cells was performed in poly-D-lysine-coated chamber cover glass slides (Lab-Tek). PC3 GFP cells were plated and allowed to adhere for 24 hr. Wells were wounded with a P200 pipette tip. The chamber slides were imaged with an IX81 Olympus wide-field fluorescence microscope equipped with a CO2- and temperature-controlled chamber and time-lapse tracking system. Images from DIC and GFP channels were taken every 2 min and processed using ImageJ and analyzed for cell migration with Manual Tracking, using local maximum centering correction to maintain a centroid xy coordinate for each cell per frame over time. Tracking data was subsequently processed with the Chemotaxis and Migration tool from ibidi to create xy coordinate plots, velocity, and distance measurements."}, "Pten^L/L mice": {"tested_on": "Pten^L/L mice", "assay": "Pharmacological treatment of Pten^L/L mice (preclinical trial, prostate cancer)", "assay_type": "in vivo, mouse", "description": "Pten^loxp/loxp and Pb-cre mice where obtained from Jackson Laboratories and Mouse Models of Human Cancers Consortium (MMHCC), respectively, and maintained in the C57BL/6 background. Mice were maintained under specific pathogen-free conditions, and experiments were performed in compliance with institutional guidelines as approved by the Institutional Animal Care and Use Committee of UCSF.\nWeight measurements were taken every 3 days to monitor for toxicity. For the 28-day study, mice were imaged via […] at day 0 and day 28 in a 14-T GE MR scanner (GE Healthcare).\nWhole mouse prostates were removed from wild-type and Pten^L/L mice, microdissected, and frozen in liquid nitrogen. Frozen tissues were subsequently manually disassociated using a biopulverizer (Biospec) and additionally processed for protein and mRNA analysis as described above.\nProstates and lymph nodes were dissected from mice within 2 hr of the indicated treatment and fixed in 10% formalin overnight at 4° C. Tissues were subsequently dehydrated in ethanol (Sigma) at room temperature, mounted into paraffin blocks, and sectioned at […] Specimens were de-paraffinized and rehydrated using CitriSolv (Fisher) followed by serial ethanol washes. […] Sections were washed in distilled water followed by TBS washes. The sections were then incubated in 5% goat serum, 1% BSA in TBS for 1 hr at room temperature. Various primary antibodies were used, including those specific for keratin 5 (Covance), cytokeratin 8 (Abcam and Covance), YB1 (Abcam), vimentin (Abcam), MTA1 (Cell signaling), CD44 (BD Pharmingen), and the androgen receptor (Epitomics), which were diluted 1:50-1:500 in blocking solution and incubated on sections overnight at 4° C. Specimens were then washed in TBS and incubated with the appropriate Alexa 488 and 594 labeled secondary (Invitrogen) at 1:500 for 2 hr at room temperature, with the exception of YB1 which was incubated with biotinylated anti-rabbit secondary (Vector) followed by incubation with Alexa 594 labeled Streptavidin (Invitrogen). A final set of washes in TBS was completed at room temperature followed by mounting with DAPI Hardset Mounting Medium (Vector Lab). A Zeiss Spinning Disc confocal (Zeiss, CSU-X1) was used to image the sections at 40×-100×. Individual prostate cells were quantified for mean fluorescence intensity (m.f.i.) using the Axiovision (Zeiss, Release 4.8) densitometric tool.\nMouse lymph nodes were processed as described above and stained for CK8 and androgen receptor. Lymph nodes were imaged using a Zeiss AX10 microscope. Metastases were identified and areas were measured using the Axiovision (Zeiss, Release 4.8) measurement tool.\nImmunohistochemistry was performed as described above (see “Immunofluorescence”) with the exception that immediately after antigen […] and TBS washes, specimens were incubated in 3% hydrogen peroxide in TBS followed by TBS washes. The following primary antibodies were used: phospho-AKT^S473 (Cell Signaling), phospho-rpS6^S240/244 (Cell Signaling), phospho-4EBP1^T37/46 (Cell Signaling), phospho-histone H3 (Upstate), and cleaved caspase (Cell Signaling). This was followed by TBS washes and incubation with the appropriate biotinylated secondary antibody (Vector Lab) for 30 min at room temperature. An ABC-HRP Kit (Vector Lab) was used to amplify the signal, followed by a brief incubation in hydrogen peroxide. The protein of interest was detected using DAB (Sigma). Specimens were counterstained with haematoxylin (Thermo Scientific), dehydrated with Citrisolv (Fisher), and mounted with Cytoseal XYL (Vector Lab).\nParaffin-embedded prostate specimens were deparaffinized and rehydrated as described above (see “Immunofluorescence”), stained with haematoxylin (Thermo Scientific), and washed with water. This was followed by a brief incubation in differentiation RTU (VWR) and two washes with water followed by two 70% ethanol washes. […]"}, "LNCaP and A498 cells": {"tested_on": "LNCaP and A498 cells", "assay": "Apoptosis analysis (Annexin V/PI)", "assay_type": "cell-based, human", "settings": "200 nM, 48 hours", "source_text": "Appropriately treated LNCaP and A498 cells were labeled with Annexin V-FITC (BD Biosciences) and propidium iodide (Sigma) following the manufacturer's instructions. PI/Annexin data was acquired using a BD FACS Caliber (BD Biosciences) and analyzed with FlowJo (v.9.1)."}, "[2]": {"tested_on": "MDA-MB-361, SKOV3 and ACHN cells", "assay": "Western blot and qPCR of 4-gene invasion signature in metastatic cell lines", "assay_type": "cell-based, human", "settings": "MDA-MB-361, SKOV3, ACHN cells, 48-hour treatment, 200 nM", "description": "Western blot analysis was performed as previously described (Hsieh et al., Cancer Cell 17:249-261 (2010)) with antibodies specific to phospho-AKT^S473 (Cell Signaling), AKT (Cell Signaling), phospho-p70S6K^T389 (Cell Signaling), phospho-rpS6^S240/244 (Cell Signaling), rpS6 (Cell Signaling), phospho-4EBP1^T37/46 (Cell Signaling), 4EBP1 (Cell Signaling), 4EBP2 (Cell Signaling), YB1 (Cell Signaling), CD44 (Cell Signaling), LEF1 (Cell Signaling), PTEN (Cell Signaling), eEF2 (Cell Signaling), GAPDH (Cell Signaling), vimentin (BD Biosciences), eIF4E (BD Biosciences), Flag (Sigma), β-actin (Sigma), MTA1 (Santa Cruz Biotechnology), Twist (Santa Cruz Biotechnology), rpL28 (Santa Cruz Biotechnology), HA (Covance) and rictor (Bethyl Laboratory).\nRNA was isolated using the manufacturer's protocol for RNA extraction with TRIzol Reagent (Invitrogen) using the Pure Link RNA mini kit (Invitrogen). RNA was DNase-treated with Pure Link Dnase (Invitrogen). DNase-treated RNA was transcribed to cDNA with SuperScript III First-Strand Synthesis System for RT-PCR (Invitrogen), and 1 μl of cDNA was used to run a SYBR green detection qPCR assay (SYBR Green Supermix and MyiQ2, Biorad). Primers were used at 200 nM."}, "[3]": {"settings": "Pten^L/L mice, ATP site inhibitor of mTOR 1 mg/kg daily, RAD001 10 mg/kg daily"}}, "data": [{"smiles": "CC(C)n1nc(-c2ccc3oc(N)nc3c2)c2c(N)ncnc21", "note": "[ATP site inhibitor of mTOR]", "values": [{"measurement": "expression of YB1, MTA1, vimentin, and CD44 at the protein but not transcript level", "setting": "[1]", "value": "selective decrease"}, {"measurement": "invasive potential of PC3 prostate cancer cells", "setting": "PC3 cells", "value": "decreased"}, {"measurement": "cancer cell migration", "setting": "GFP-labeled PC3 cells", "value": "inhibited"}, {"measurement": "prostate cancer volume", "setting": "Pten^L/L mice; Pten^L/L mice, 1 mg/kg daily, 28-day treatment, MRI", "value": "marked reduction"}, {"measurement": "decrease in prostatic intraepithelial neoplasia (PIN) lesions", "setting": "Pten^L/L mice; Pten^L/L mice, 1 mg/kg daily, 28 days", "value": 50, "unit": "%"}, {"measurement": "4EBP1 and p70S6K1/2 phosphorylation", "setting": "Pten^L/L mice; Pten^L/L mice, 28 days, ATP site inhibitor of mTOR 1 mg/kg daily, RAD001 10 mg/kg daily", "value": "completely restored to wild-type levels"}, {"measurement": "progression of invasive prostate cancer locally in the prostate gland", "setting": "Pten^L/L mice; Pten^L/L mice, 60 days of treatment", "value": "completely blocked"}, {"measurement": "total number and size of distant metastases", "setting": "Pten^L/L mice; Pten^L/L mice, draining lymph nodes, 60 days of treatment", "value": "profoundly inhibited"}, {"measurement": "apoptosis (cleaved caspase 3)", "setting": "Pten^L/L mice; [3]", "value": "tenfold increase"}, {"measurement": "proliferation (phospho-histone H3)", "setting": "Pten^L/L mice; [3]", "value": "decreased"}, {"measurement": "expression of YB1, vimentin, CD44, and MTA1 at the protein, but not transcript, level", "setting": "Pten^L/L mice; specific epithelial cell types within pre-invasive PIN lesions in Pten^L/L mice", "value": "marked decrease"}, {"measurement": "programmed cell death in multiple cancer cell lines", "setting": "LNCaP and A498 cells", "value": "induced"}, {"measurement": "4-gene invasion signature response in metastatic cell lines", "setting": "[2]", "value": "responsive"}]}]}
